Tested on: 817829-284-R-J1-PDC complex spheroids, viability
Experiment: Anticancer human tumor 817829-284-R-J1-PDC patient-derived colon adenocarcinoma cell line growth inhibition [GQUAD]
Details: for IC50: curve of first compound; for viability, T/C: stronger effect = lower value
Outline: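 Viability of tumor cells grown as complex spheroids with endothelial and stromal cells, exposed to drug combinations. Top concentration at or near clinical Cmax (else 10 microM), diluted in half-log increments.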
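Further: spheroids exposed to agents for 7 days before readout.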
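Wherever viability, T/C is given: percent viability relative to DMSO vehicle control taken as 100%.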

Question: Which IC50 (second compound 0.0316 µM) does the source give for C=CCn1c(=O)c2cnc(Nc3ccc(N4CCN(C)CC4)cc3)nc2n1-c1cccc(C(C)(C)O)n1 + CN(C)c1ccc(Nc2c3ccc(NC(=O)CCN4CCCC4)cc3nc3cc(NC(=O)CCN4CCCC4)ccc23)cc1 here?
Answer: The IC50 was 0.24 µM.

Question: And the IC50 (second compound 0.1 µM)?
Answer: The IC50 was 0.22 µM.

Question: What about the IC50 (second compound 0.316 µM) of the same compound?
Answer: The IC50 was 0.263 µM.

Question: What about the IC50 (second compound 1 µM) of the same compound?
Answer: Its IC50 is 0.231 µM.

Question: What about the IC50 (second compound 3.16 µM) of the same compound?
Answer: Its IC50 is 0.214 µM.

Question: What about the IC50 (second compound 10 µM) of the same compound?
Answer: Its IC50 is 0.19 µM.

Question: What about the viability, T/C (second compound 0.0316 µM, first compound 0.0316 µM) of the same compound?
Answer: The viability, T/C was 99.2%.

Question: What about the viability, T/C (second compound 0.0316 µM, first compound 0.1 µM) of the same compound?
Answer: Its viability, T/C is 106%.

Question: And the viability, T/C (second compound 0.0316 µM, first compound 0.316 µM)?
Answer: The viability, T/C was 33.4%.

Question: What about the viability, T/C (second compound 0.0316 µM, first compound 1 µM) of the same compound?
Answer: Its viability, T/C is 9.73%.

Question: What about the viability, T/C (second compound 0.0316 µM, first compound 3.16 µM) of the same compound?
Answer: The viability, T/C was 6.22%.

Question: And the viability, T/C (second compound 0.0316 µM, first compound 10 µM)?
Answer: Its viability, T/C is 6.74%.

Question: What about the viability, T/C (second compound 0.1 µM, first compound 0.0316 µM) of the same compound?
Answer: The viability, T/C was 88.5%.

Question: What about the viability, T/C (second compound 0.1 µM, first compound 0.1 µM) of the same compound?
Answer: The viability, T/C was 101%.

Question: And the viability, T/C (second compound 0.1 µM, first compound 0.316 µM)?
Answer: Its viability, T/C is 29.5%.

Question: And the viability, T/C (second compound 0.1 µM, first compound 1 µM)?
Answer: Its viability, T/C is 9.11%.

Question: What about the viability, T/C (second compound 0.1 µM, first compound 3.16 µM) of the same compound?
Answer: Its viability, T/C is 7.3%.

Question: And the viability, T/C (second compound 0.1 µM, first compound 10 µM)?
Answer: Its viability, T/C is 5.57%.

Question: What about the viability, T/C (second compound 0.316 µM, first compound 0.0316 µM) of the same compound?
Answer: Its viability, T/C is 102%.

Question: What about the viability, T/C (second compound 0.316 µM, first compound 0.1 µM) of the same compound?
Answer: The viability, T/C was 109%.

Question: What about the viability, T/C (second compound 0.316 µM, first compound 0.316 µM) of the same compound?
Answer: Its viability, T/C is 39.2%.

Question: And the viability, T/C (second compound 0.316 µM, first compound 1 µM)?
Answer: Its viability, T/C is 9.34%.

Question: And the viability, T/C (second compound 0.316 µM, first compound 3.16 µM)?
Answer: Its viability, T/C is 7.03%.

Question: And the viability, T/C (second compound 0.316 µM, first compound 10 µM)?
Answer: The viability, T/C was 5.88%.

Question: What about the viability, T/C (second compound 1 µM, first compound 0.0316 µM) of the same compound?
Answer: Its viability, T/C is 99.8%.

Question: And the viability, T/C (second compound 1 µM, first compound 0.1 µM)?
Answer: The viability, T/C was 102%.

Question: What about the viability, T/C (second compound 1 µM, first compound 0.316 µM) of the same compound?
Answer: The viability, T/C was 30.9%.

Question: And the viability, T/C (second compound 1 µM, first compound 1 µM)?
Answer: Its viability, T/C is 9.37%.

Question: And the viability, T/C (second compound 1 µM, first compound 3.16 µM)?
Answer: Its viability, T/C is 6.93%.

Question: And the viability, T/C (second compound 1 µM, first compound 10 µM)?
Answer: Its viability, T/C is 6.42%.

Question: What about the viability, T/C (second compound 3.16 µM, first compound 0.0316 µM) of the same compound?
Answer: Its viability, T/C is 89.3%.

Question: And the viability, T/C (second compound 3.16 µM, first compound 0.1 µM)?
Answer: The viability, T/C was 102%.

Question: And the viability, T/C (second compound 3.16 µM, first compound 0.316 µM)?
Answer: Its viability, T/C is 26.4%.

Question: What about the viability, T/C (second compound 3.16 µM, first compound 1 µM) of the same compound?
Answer: The viability, T/C was 10.9%.

Question: And the viability, T/C (second compound 3.16 µM, first compound 3.16 µM)?
Answer: Its viability, T/C is 7.22%.

Question: What about the viability, T/C (second compound 3.16 µM, first compound 10 µM) of the same compound?
Answer: The viability, T/C was 5.95%.

Question: What about the viability, T/C (second compound 10 µM, first compound 0.0316 µM) of the same compound?
Answer: The viability, T/C was 104%.

Question: And the viability, T/C (second compound 10 µM, first compound 0.1 µM)?
Answer: The viability, T/C was 82.4%.

Question: What about the viability, T/C (second compound 10 µM, first compound 0.316 µM) of the same compound?
Answer: The viability, T/C was 24%.

Question: And the viability, T/C (second compound 10 µM, first compound 1 µM)?
Answer: The viability, T/C was 11.2%.

Question: What about the viability, T/C (second compound 10 µM, first compound 3.16 µM) of the same compound?
Answer: The viability, T/C was 7.11%.

Question: And the viability, T/C (second compound 10 µM, first compound 10 µM)?
Answer: Its viability, T/C is 2.4%.

Reference: PubChem BioAssay AID2060503 (Molecular Pharmacology Branch, DTP, NCI, 2025)
